Tests used:
[1] = molecular target: T1, Tyrosine-protein phosphatase non-receptor type 1 (Homo sapiens) (UniProt P18031); assay: Inhibition of recombinant human PTP1B (1 to 322 residues) expressed in Escherichia coli at 31 uM preincubated for 10 mins followed by pNPP substrate addition measured after 30 mins relative to control
T1 sequence (whole entry): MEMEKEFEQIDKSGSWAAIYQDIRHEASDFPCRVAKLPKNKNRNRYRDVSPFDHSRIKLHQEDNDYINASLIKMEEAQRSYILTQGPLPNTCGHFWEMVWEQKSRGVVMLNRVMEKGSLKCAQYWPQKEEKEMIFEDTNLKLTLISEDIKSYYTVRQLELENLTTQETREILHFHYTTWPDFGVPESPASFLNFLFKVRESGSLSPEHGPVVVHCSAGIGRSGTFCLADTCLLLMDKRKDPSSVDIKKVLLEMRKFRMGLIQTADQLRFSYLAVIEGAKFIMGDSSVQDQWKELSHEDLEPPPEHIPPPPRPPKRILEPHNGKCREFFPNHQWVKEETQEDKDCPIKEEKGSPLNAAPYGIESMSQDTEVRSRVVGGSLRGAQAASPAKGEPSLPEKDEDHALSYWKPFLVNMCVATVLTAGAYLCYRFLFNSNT

[2] = molecular target: T2, Tyrosine-protein phosphatase non-receptor type 1 (Homo sapiens, UniProt P18031)
T2 sequence (P18031 whole entry): T1 sequence (whole entry)
Description: Inhibition of recombinant human PTP1B (1 to 322 residues) expressed in Escherichia coli using pNPP as substrate preincubated for 10 mins followed by substrate addition measured after 30 mins

[3] = molecular target: T1, Tyrosine-protein phosphatase non-receptor type 1 (Homo sapiens); conditions: 25 uM
Description: Inhibition of recombinant human PTP1B (1 to 322 residues) expressed in Escherichia coli at 25 uM preincubated for 10 mins followed by pNPP substrate addition measured after 30 mins relative to control

[4] = molecular target: T1, Tyrosine-protein phosphatase non-receptor type 1 (Homo sapiens); conditions: 32 uM
Description: Inhibition of recombinant human PTP1B (1 to 322 residues) expressed in Escherichia coli at 32 uM preincubated for 10 mins followed by pNPP substrate addition measured after 30 mins relative to control

| Compound | IC50 [2] [µM] | also measured |
| --- | --- | --- |
| C=C1CCC[C@H]2[C@](C)(Cc3cc(OC)ccc3O)[C@@H](C)CC[C@]12C | – | inhibition [1]: 50% |
| COc1ccc(O)c(C[C@]2(C)[C@@H](C)CC[C@]3(C)C(C)=CCC[C@@H]23)c1 | – | inhibition [1]: 0% |
| CC(=O)Oc1ccc(O)c(C[C@]2(C)[C@@H](C)CC[C@]3(C)C(C)=CCC[C@@H]23)c1 | 10 | – |
| CC(=O)Oc1ccc(OC(C)=O)c(C[C@]2(C)[C@@H](C)CC[C@]3(C)C(C)=CCC[C@@H]23)c1 | – | inhibition [3]: 5% |
| CC1=CCC[C@H]2[C@]3(C)Cc4cc(O)ccc4O[C@]3(C)CC[C@]12C | 11 | – |
| C=C1CCC[C@H]2[C@](C)(Cc3cc(OC(C)=O)ccc3OC(C)=O)[C@@H](C)CC[C@]12C | 14 | – |
| CC1=CCC[C@H]2[C@](C)(Cc3cc(O)ccc3O)[C@@H](C)CC[C@]12C [AVAROL] | 12 | – |
| C=C1CCC[C@H]2[C@](C)(Cc3cc(O)ccc3O)[C@@H](C)CC[C@]12C | > 32 | inhibition [4]: 35% |
| CC1=CCC[C@H]2[C@](C)(CC3=CC(=O)C=C(N)C3=O)[C@@H](C)CC[C@]12C | 18 | – |

More lines, in order of falling IC50 [2], values ahead:

| IC50 [2] [µM] | Compound | also measured |
| --- | --- | --- |
| 9.5 | CC(=O)Oc1ccc(O)cc1C[C@]1(C)[C@@H](C)CC[C@]2(C)C(C)=CCC[C@@H]12 | – |
| 9.4 | C=C1CCC[C@H]2[C@](C)(Cc3cc(OC(=O)CC)ccc3OC(=O)CC)[C@@H](C)CC[C@]12C | – |
| 8.8 | CCC(=O)Oc1ccc(OC(=O)CC)c(C[C@]2(C)[C@@H](C)CC[C@]3(C)C(C)=CCC[C@@H]23)c1 | – |
| 8.6 | C=C1CCC[C@H]2[C@](C)(Cc3cc(OC(C)=O)ccc3O)[C@@H](C)CC[C@]12C | – |
| 6.5 | C=C1CCC[C@H]2[C@](C)(Cc3cc(O)ccc3OC(C)=O)[C@@H](C)CC[C@]12C | – |
